Source: patent US20060099712A1, “Correlation of anti-cancer activity of dyes with redox potentials” (Eastman Kodak Company, priority 2004, published 2006)

Assay: Electrochemical reduction potential (Er) measurement, SHACV / fast scan CV
Format: physicochemical
Details: for Er: Table XIX, reduction potential vs. Ag/AgCl, in V (unit assumed)
Excerpt: In the practice of this invention the reduction potential of a given dye may be determined in various ways. If available, the published reduction potential may be employed. Reduction potentials for numerous cyanine and merocyanine dyes are available in the literature. (See J. Lenhard, Journal of Imaging Science, vol. 30 pp. 27-35 (1986).) A large amount of data has been generated on the reduction and oxidation potentials of these dyes from their use in photography and related arts where they are employed, inter alia, as spectral sensitizers.
If a published reduction potential is not available, suitable techniques for measuring reduction potential are available. Accurate electrochemical oxidation and reduction potentials for these organic dyes can be measured by the techniques of fast scan cyclic voltommetry (CV) or second harmonic ac voltommetry (SHACV). SHACV measurements are made as described by Lenhard in the Journal of Imaging Science volume 30, 1986 pp 27-35 using a commercially available (Princeton Applied Research Corp.) potentiostat in conjunction with voltage programmer, a conventional lock-in amplifier, and a low-distortion oscillator. The SHACV method utilizes an ac voltage waveform (of a frequency greater than or equal to 400 hz) that is superimposed on a DC potential ramp. On the other hand, the measurement of the oxidation or reduction potential by the CV method utilizes a (high frequency) triangular voltage waveform. The general procedures for measuring potentials by this method have been described by Wightman in Analytical Chemistry, 1984, vol. 56, pp524 and Journal of Physical Chemistry, 1984, vol. 88, pp3915. The specific application of this technique to the measurement of cyanine dye potentials has been reported by Nomura and Okazaki, Chemistry Letters, 1990, pp2231-2234. Commercial instrumentation especially designed for fast scan (i.e., high frequency) CV is available. It is noteworthy that because of the complicated nature of many of the cyanine dyes, electrochemical reactions, conventional slow scan cyclic voltommetry or polarography methods (as described by R. Large in Photographic Sensitivity, R. Cox, ed., Academic Press, New York, 1973, pp 241-263) provide only approximate values for oxidation and reduction potentials. Errors as large as 0.4 V from the true potential can be obtained by using slow scan CV or electrochemical methods.
The procedure for measuring the oxidation or reduction potential by the SHACV or fast scan CV method utilizes solutions of acetonitrile (or similar nonaqueous solvent) with added tetrabutylammonium tetrafluoroborate TBABF4 at a concentration of 0.1 M and ca. 5×10^−4 M of the cyanine, oxonol, or merocyanine dye. For measurement of the reduction potential the solution must be deaerated with argon prior to examination. The preferred working electrode is a Pt disk (ca. 0.02 cm^2) that is polished with 1 μm diamond paste, rinsed with water, and dried before each experiment. The reference electrode is a NaCl saturated calomel electrode. The cell and reference electrodes are maintained at 22 C. A value of 40 mV is added to the measured potentials to convert the number to that corresponding to an Ag/AgCl reference electrode. If a solvent other than acetonitrile is used then the measured potential must be referenced to a standard organic redox system such as ferrocene and corrected accordingly.
SHACV (Second Harmonic Alternating Current Voltametry) measurements are made as described by Lenhard in the Journal of Imaging Science volume 30, 1986 pp 27-35 using a commercially available (Princeton Applied Research Corp.) potentiostat in conjunction with voltage programmer, a conventional lock-in amplifier, and a low-distortion oscillator. The SHACV method utilizes an ac voltage waveform (of a frequency greater than or equal to 400 hz) that is superimposed on a DC potential ramp. […]

ER(v), electrochemical reduction potential | Er | SMILES
−1.06 V | −1.060 | CCN1/C(=C/C=C/c2sc3ccccc3[n+]2CC)Sc2ccccc21.[I-] [Dye D-101]
 | −0.920 | CCN1/C(=C/C=C/c2sc3cc4ccccc4cc3[n+]2CC)Sc2cc3ccccc3cc21 [Dye D-160]

More lines, now with the values behind:

SMILES | ER(v), electrochemical reduction potential | Er
CCN1C(=CC=Cc2sc3cc4ccccc4cc3[n+]2CC)Sc2cc3ccccc3cc21 [AC-2] | −.920 V | 
COc1cccc2c1C(=O)c1c(O)c3c(c(O)c1C2=O)C[C@@](O)(C(=O)CO)C[C@@H]3O[C@H]1C[C@H](N)[C@H](O)[C@H](C)O1 [Adriamycin, reference compound] | −0.68 V | 
CCN1/C(=C\C=C\C2=[N+](CC)c3ccccc3C2(C)C)C(C)(C)c2ccccc21 [Dye D-103] |  | −1.000
CCN1/C(=C/C=C/c2sc3cc4ccccc4cc3[n+]2CC)Sc2cc3ccccc3cc21 [Dye D-109] |  | −0.920
CCN1C(=CC=Cc2sc3cc4ccccc4nc3[n+]2CC)Sc2cc3ccccc3nc21 [Dye D-150] | −.808 V | −0.808
